{"source": "patent US9790253B2", "about": "“OSW-1 analogs and conjugates, and uses thereof” (priority 2011, dated 2017)", "key": {"OSBP1-myc-his": {"biological_target": "T1, OSBP1-myc-his (Homo sapiens, UniProt P22059)", "T1 construct": "made in house; host or cells: HEK-293T (transient transfection; S100 lysate, not purified)", "T1 sequence (P22059 1-807)": "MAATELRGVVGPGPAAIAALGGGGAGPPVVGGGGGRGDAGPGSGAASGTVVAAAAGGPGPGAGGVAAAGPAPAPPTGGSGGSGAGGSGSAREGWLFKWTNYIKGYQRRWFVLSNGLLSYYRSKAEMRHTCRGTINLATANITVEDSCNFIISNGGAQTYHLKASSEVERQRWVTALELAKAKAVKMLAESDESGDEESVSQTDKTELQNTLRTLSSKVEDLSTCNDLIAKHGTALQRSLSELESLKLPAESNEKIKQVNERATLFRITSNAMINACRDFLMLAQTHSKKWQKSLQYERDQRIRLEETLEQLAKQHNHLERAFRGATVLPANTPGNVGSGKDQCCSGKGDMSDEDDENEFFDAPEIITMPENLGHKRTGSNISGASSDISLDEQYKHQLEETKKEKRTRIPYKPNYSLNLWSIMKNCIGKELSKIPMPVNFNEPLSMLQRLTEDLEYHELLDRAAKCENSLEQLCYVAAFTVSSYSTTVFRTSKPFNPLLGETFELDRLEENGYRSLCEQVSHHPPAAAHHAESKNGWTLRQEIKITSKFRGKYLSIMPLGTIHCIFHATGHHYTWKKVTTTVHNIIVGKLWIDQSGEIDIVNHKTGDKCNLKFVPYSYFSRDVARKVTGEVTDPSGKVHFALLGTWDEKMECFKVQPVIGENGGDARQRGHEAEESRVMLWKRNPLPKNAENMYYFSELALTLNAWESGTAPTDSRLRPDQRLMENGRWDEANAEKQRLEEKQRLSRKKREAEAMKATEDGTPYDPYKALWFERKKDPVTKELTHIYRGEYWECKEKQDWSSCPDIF", "experiment": "[3H]-25-hydroxycholesterol charcoal-dextran binding assay with OSBP1-myc-his", "conditions": "for Ki: competition with 20 nM [3H]-25-OHC, HEK-293T S100 lysate, 4° C., 16 h, read-out: [^3H]-25-OHC K1 (nM) OSBP1-myc-his", "text": "[^3H]-25-Hydroxycholesterol charcoal-dextran binding assay.\nMethods are described above in the General Methods section."}, "[1]": {"test_system": "HeLa cells overexpressing OSBP1(V582M)", "experiment": "Overexpression-viability assay, OSBP1(V582M)-myc-his", "format": "cell-based", "conditions": "48 h", "method": "Overexpression-viability assays with wild-type and mutant OSBP/ORP4L constructs were carried out by transfecting HeLa cells with the appropriate plasmids using Lipofectamine™ LTX with PLUS™ reagent (Invitrogen) as instructed, and after 8 h of transfection, the cells were re-plated for the cell viability assay, performed as described above. Expression levels were evaluated by immunoblotting at the time of dosing.\nFor additional support that OSBP1 and ORP4L are targets of the ORPphilins, dominant drug-resistant alleles of these proteins were sought. 15 OSBP1 residues inside and outside the region of the protein previously reported to mediate sterol binding were mutated (FIG. 4C). The growth inhibition induced by the ORPphilins was determined in HeLa cells overexpressing either wild-type or mutant OSBP1-myc-his proteins. Expression of wt OSBP1-myc-his and mutant OSBP1-myc-his were nearly equivalent as measured by western blot.\nThe same mutant caused a 3.9-fold reduction in the antiproliferative activity of OSW-1 (2) (FIG. 4E2) and a 2.7-fold reduction in the activity of schweinfurthin A (4a) (FIG. 4E3). […] The antiproliferative activity of taxol was unaffected by expression of these two OSBP1 mutant proteins (FIGS. 4E4, 4E8)."}, "[2]": {"biological_target": "T2, OSBP1 protein levels in HCT-116 cells (Homo sapiens, UniProt P22059)", "T2 construct": "endogenous in cells; host or cells: HCT-116", "T2 sequence (P22059 1-807)": "T1 sequence (P22059 1-807)", "experiment": "OSBP1 protein levels by western blotting", "format": "cell-based", "conditions": "for reduction in OSBP1 protein levels: 24 h", "method": "A possible explanation for this observation was that treatment with 1 and 2 caused a decrease in OSBP1 levels. Treatment of HCT-116 cells with vehicle (DMSO) or 25-OHC (10 μM) had no effect on OSBP1 levels, as assessed by western blotting (FIG. 6A). However, treatment with 1 or 2 induced a dramatic, time-dependent reduction of OSBP1 levels (FIG. 6A). For example, 50 nM of 1 or 10 nM of 2 caused an approximately 75% reduction in OSBP1 protein levels at 24 h in HCT-116 cells (FIG. 6A), with a similar effect recorded in A549 cells. […] OSBP1 levels were determined using both an antibody recognizing the far N-terminus of OSBP1 (FIG. 6) and also an antibody recognizing the C-terminus of OSBP1.\nOne possible explanation for the reduction in OSBP1 levels upon treatment with 1 and 2 was proteasome-dependent degradation. To determine whether degradation of OSBP1 was proteasome dependent, proteasome inhibitors MG-132 or lactacystin were co-administered with 1 and 2. […] Similar results were obtained in A549 cells."}, "[3]": {"test_system": "OSBP1 localization in HCT-116 cells", "experiment": "OSBP1 localization by immunofluorescence microscopy, HCT-116", "format": "cell-based, human", "conditions": "4 h treatment", "method": "Immunofluorescence microscopy. HCT-116 or A549 (adenocarcinomic human alveolar basal epithelial) cells were plated on coverslips in 6-well plates. After 72 h, the culture media was removed and replaced with media containing either compound or vehicle control. At the indicated time-points, the cells were fixed for 10 min using 3.7% formaldehyde in PBS. The coverslips were washed with PBS and permeabilized for 5 min with 0.5% Triton X-100 in PBS. Following PBS washing, the coverslips were blocked for 30 min using Image-iT™ FX (Invitrogen), washed with PBS, and then blocked for 30 min at room temperature (RT) with 1% BSA in PBS (BSA/PBS). The coverslips were then incubated overnight at 4° C. with a primary antibody solution in BSA/PBS. The coverslips were washed with BSA/PBS and incubated for 60 min at RT with Alexa Fluor®-conjugated secondary antibodies (Invitrogen) in BSA/PBS, with the final 30 min including incubation with Hoescht 33258. The coverslips were then washed sequentially with BSA/PBS, PBS, and water and finally mounted on microscope slides using Aqua Poly/Mount (Polysciences Inc.). Imaging data was acquired using Zeiss LSM 510 META scanning confocal microscope.\nAlthough the function of OSBP1 is not yet fully elucidated, several cellular activities have been observed. For instance, OSBP1 translocates from cytoplasmic sites to the trans-Golgi network (TGN) upon addition of 25-OHC to cells. HCT-116 cells were treated with ORPphilins for short time periods (4 h) and the effects on OSBP1 localization monitored using immunofluorescence microscopy.\nOSBP1 (green) and trans-Golgi protein P230 (red) were visualized in HCT-116 cells using indirect immunofluorescence microscopy. Cells were treated with compound for 4 h, fixed with 3.7% formaldehyde/PBS, washed, and permeabilized using 0.5% Triton X-100 in PBS. Proteins were labelled using specific primary antibodies against OSBP1 and P230 overnight at 4° C. After washing, cells were treated with Alexa Fluor 488 and Alexa Fluor 546 secondary antibodies for 1 h at RT."}}, "note": "Entries after “also recorded” stand apart in the source; their conditions may differ.", "data": [{"compound": "COc1ccc(C(=O)O[C@H]2[C@H](O[C@@H]3[C@@H](OC(C)=O)[C@H](O[C@H]4C[C@H]5[C@@H]6CC=C7C[C@@H](O)CC[C@]7(C)[C@H]6CC[C@]5(C)[C@@]4(O)[C@H](C)C(=O)CCC(C)C)OC[C@@H]3O)OC[C@@H](O)[C@@H]2O)cc1", "note": "[OSW-1]", "values": [{"measurement": "Ki", "setting": "OSBP1-myc-his", "value": "26 ± 9", "unit": "nM"}, {"measurement": "reduction in antiproliferative activity, OSBP1(V582M) vs wt OSBP1", "setting": "[1]", "value": "did not affect"}, {"measurement": "reduction in OSBP1 protein levels", "setting": "[2]; 10 nM", "value": "approximately 75%"}, {"measurement": "OSBP1 localization", "setting": "[3]", "value": "caused OSBP1 to localize to a perinuclear position that did not co-localize with p230"}]}, {"compound": "schweinfurthin A", "values": [{"measurement": "Ki", "setting": "OSBP1-myc-his", "value": "68 ± 23", "unit": "nM"}, {"measurement": "reduction in antiproliferative activity, OSBP1(V582M) vs wt OSBP1", "setting": "[1]", "value": "did not affect"}, {"measurement": "suppression of OSBP1 level reduction caused by 2", "setting": "[2]; 5 μM with 10 nM of 2", "value": "completely suppressed"}, {"measurement": "effect on OSBP1 levels, compound alone", "setting": "[2]; concentration not given", "value": "no effect"}, {"measurement": "OSBP1 localization", "setting": "[3]", "value": "caused OSBP1 to accumulate at perinuclear positions with a large degree of co-localization with the trans-Golgi marker p230"}]}, {"compound": "C[C@@H]1[C@]2(O[C@H]3C=C4[C@@H]5CC[C@H]6Cc7nc8c(nc7C[C@]6(C)[C@H]5C[C@@H](O)[C@]4(C)[C@]31O)C[C@@H]1CC[C@H]3C4=CC[C@@H]5[C@H](C)[C@@]6(OC[C@]45C(=O)C[C@@H]3[C@@]1(C)C8)OC(C)(C)C[C@H]6O)O[C@](C)(CO)C[C@H]2O", "note": "[cephalostatin 1, Cephalostatin 1]", "values": [{"measurement": "Ki", "setting": "OSBP1-myc-his", "value": "39 ± 10", "unit": "nM"}, {"measurement": "reduction in antiproliferative activity, OSBP1(V582M) vs wt OSBP1", "setting": "[1]", "value": 9.4, "unit": "fold"}, {"measurement": "reduction in OSBP1 protein levels", "setting": "[2]; 50 nM", "value": "approximately 75%"}, {"measurement": "OSBP1 localization", "setting": "[3]", "value": "OSBP1 occupying a perinuclear position with little co-localization of the dispersed p230 marker"}, {"measurement": "OSBP1 localization", "setting": "[3]; listed as 1", "value": "partially localize to the plasma membrane"}]}, {"compound": "C[C@H](CCCC(C)(C)O)[C@H]1CC[C@H]2[C@@H]3CC=C4C[C@@H](O)CC[C@]4(C)[C@H]3CC[C@]12C", "note": "[Compound 25-OHC, 25-hydroxycholesterol]", "values": [{"measurement": "Kd", "setting": "OSBP1-myc-his; direct binding", "value": "32 ± 14", "unit": "nM"}, {"measurement": "effect on OSBP1 levels", "setting": "[2]; 10 μM", "value": "no effect; also recorded: did not reduce"}, {"measurement": "suppression of OSBP1 level reduction caused by 2", "setting": "[2]; 25-OHC (10 M or 20 M) with 2 (1 nM)", "value": "significantly suppressed"}]}]}
